Reference: paper PMC8456496 (2021)
Values belong to the compound of their own block, whether it stands above or below them.

Key:
Experiment in all cases: fluorescence light-switch
[1] = tested on: poly AT (DNA, duplex) ATATATATATATATATATAT; details: 50 mM NaCl, 10 μM complex, 50 μM bp DNA
[2] = tested on: poly A poly T (DNA, duplex) AAAAAAAAAAAAAAAAAAAAA/TTTTTTTTTTTTTTTTTTTTT; details: 50 mM NaCl; 5 mM Tris-HCl pH 7.0, 1% DMSO, RT; 10 μM complex, 50 μM bp DNA; emission near 600 nm
[3] = tested on: poly T (DNA, single strand) TTTTTTTTTTTTTTTTTTTTT; details: 50 mM NaCl; 5 mM Tris-HCl pH 7.0, 1% DMSO, RT; 10 μM complex, 50 μM DNA; emission near 600 nm

binding ([1]; 5 mM Tris-HCl pH 7.0, 1% DMSO, RT, excimer emission at 599 nm): yes | binding [2]: yes | binding [3]: yes
Compound: CN(C)Cc1[c-]cccc1.[Pt+2].c1ccc2cc3nc4c5cccnc5c5ncccc5c4nc3cc2c1

binding ([1]; 5 mM Tris-HCl pH 7.0, RT, emission at 431 nm): yes
Compound: CN(C)Cc1[c-]cccc1.[Pt+2].c1ccc2nc3c4cccnc4c4ncccc4c3nc2c1

binding ([1]; 5 mM Tris-HCl pH 7.0, RT, emission at 438 nm): yes
Compound: CN(C)Cc1[c-]cccc1.[Pt+2].c1cnc2c(c1)c1nccnc1c1cccnc12
